Test system: MV-4-11 cells
Test: Gene expression microarray analysis (Affymetrix PrimeView) and GSEA
Type: cell-based, human
Set-up: RFU PODN (11730768_x_at) / Fold change /veh PODN (11730768_x_at) / RFU LINC00158 (11744669_a_at) / Fold change /veh LINC00158 (11744669_a_at) / RFU DUSP10 (11751237_a_at) / Fold change /veh DUSP10 (11751237_a_at) / RFU ID3 (11757404_x_at) / Fold change /veh ID3 (11757404_x_at) / RFU PLEKHG5 (11737974_s_at) / Fold change /veh PLEKHG5 (11737974_s_at) / RFU LRRC4B (11730491_at) / Fold change /veh LRRC4B (11730491_at) / RFU GIMAP4 (11747438_a_at) / Fold change /veh GIMAP4 (11747438_a_at) / RFU KRT8 (11758183_x_at) / Fold change /veh KRT8 (11758183_x_at) / RFU CNN1 (11734310_a_at) / Fold change /veh CNN1 (11734310_a_at) / RFU VPS37D (11726825_at) / Fold change /veh VPS37D (11726825_at) / RFU C10orf10 (11716522_x_at) / Fold change /veh C10orf10 (11716522_x_at) / RFU KIR2DL2 /// KIR2DL4 /// KIR2DL5A /// KIR2DL5B /// KIR2DS1 /// KIR2DS2 /// KIR2DS3 /// KIR2DS4 /// KIR3DL3 /// KIR3DL3 /// KIR3DS1 (11738374_at) / Fold change /veh KIR2DL2 /// KIR2DL4 /// KIR2DL5A /// KIR2DL5B /// KIR2DS1 /// KIR2DS2 /// KIR2DS3 /// KIR2DS4 /// KIR3DL3 /// KIR3DL3 /// KIR3DS1 (11738374_at) / RFU C1QL1 (11718748_at) / Fold change /veh C1QL1 (11718748_at) / RFU TMPRSS4 (11747572_a_at) / Fold change /veh TMPRSS4 (11747572_a_at) / RFU HAMP (11756126_x_at) / Fold change /veh HAMP (11756126_x_at) / RFU RNFT2 (11725882_a_at) / Fold change /veh RNFT2 (11725882_a_at) / RFU NR4A2 (11747474_a_at) / Fold change /veh NR4A2 (11747474_a_at) / RFU ABCC12 (11746883_a_at) / Fold change /veh ABCC12 (11746883_a_at) / RFU TMEM136 (11760407_x_at) / Fold change /veh TMEM136 (11760407_x_at) / RFU CLDN22 /// WWC2 (11732394_at) / Fold change /veh CLDN22 /// WWC2 (11732394_at) / RFU HLA-DPB1 (11760878_x_at) / Fold change /veh HLA-DPB1 (11760878_x_at) / RFU SPINT1 (11716480_a_at) / Fold change /veh SPINT1 (11716480_a_at) / RFU GAP43 (11754022_s_at) / Fold change /veh GAP43 (11754022_s_at) / RFU A4GNT (11735810_at) / Fold change /veh A4GNT (11735810_at) / RFU PRB3 (11715151_x_at) / Fold change /veh PRB3 (11715151_x_at) / RFU TUBB4B (11761932_at) / Fold change /veh TUBB4B (11761932_at) / RFU CAPN14 (11732068_a_at) / Fold change /veh CAPN14 (11732068_a_at) / RFU TMCC2 (11721928_a_at) / Fold change /veh TMCC2 (11721928_a_at) / RFU IRGQ (11745062_a_at) / Fold change /veh IRGQ (11745062_a_at) / RFU FAM174B (11720279_a_at) / Fold change /veh FAM174B (11720279_a_at) / RFU TMPRSS4 (11748680_a_at) / Fold change /veh TMPRSS4 (11748680_a_at) / RFU FAM212B (11763350_a_at) / Fold change /veh FAM212B (11763350_a_at) / RFU PLEKHG5 (11743358_a_at) / Fold change /veh PLEKHG5 (11743358_a_at) / RFU ZSCAN30 (11745921_a_at) / Fold change /veh ZSCAN30 (11745921_a_at) / RFU CMKLR1 (11741424_a_at) / Fold change /veh CMKLR1 (11741424_a_at) / RFU LOC101060620 /// MAPK8IP1 (11723275_at) / Fold change /veh LOC101060620 /// MAPK8IP1 (11723275_at) / RFU SPTSSB (11747773_x_at) / Fold change /veh SPTSSB (11747773_x_at) / RFU PRSS12 (11739890_at) / Fold change /veh PRSS12 (11739890_at) / RFU BIN1 (11741810_x_at) / Fold change /veh BIN1 (11741810_x_at) / RFU WNT11 (11732464_a_at) / Fold change /veh WNT11 (11732464_a_at) / RFU C10orf10 (11716521_a_at) / Fold change /veh C10orf10 (11716521_a_at) / RFU C5orf56 (11738089_at) / Fold change /veh C5orf56 (11738089_at) / RFU CYB561 (11721691_x_at) / Fold change /veh CYB561 (11721691_x_at) / RFU ANKRD19P (11752326_a_at) / Fold change /veh ANKRD19P (11752326_a_at) / RFU OR2T12 /// OR2T33 /// OR2T8 (11738714_s_at) / Fold change /veh OR2T12 /// OR2T33 /// OR2T8 (11738714_s_at) / RFU VCAN (11748164_a_at) / Fold change /veh VCAN (11748164_a_at) / RFU JSRP1 (11732532_at) / Fold change /veh JSRP1 (11732532_at) / RFU KRTAP10-11 (11738290_x_at) / Fold change /veh KRTAP10-11 (11738290_x_at) / RFU MYO3A (11730013_a_at) / Fold change /veh MYO3A (11730013_a_at) / RFU EBF3 (11725865_a_at) / Fold change /veh EBF3 (11725865_a_at) / RFU CAMK2N1 (11719241_x_at) / Fold change /veh CAMK2N1 (11719241_x_at) / RFU C5orf56 (11738088_a_at) / Fold change /veh C5orf56 (11738088_a_at) / RFU OLFML3 (11715873_a_at) / Fold change /veh OLFML3 (11715873_a_at) / RFU LOC100653217 /// NTM (11731650_a_at) / Fold change /veh LOC100653217 /// NTM (11731650_a_at) / RFU MAPK11 (11762145_a_at) / Fold change /veh MAPK11 (11762145_a_at) / RFU FIZ1 (11724087_x_at) / Fold change /veh FIZ1 (11724087_x_at) / RFU OASL (11726364_x_at) / Fold change /veh OASL (11726364_x_at) / RFU SOX15 (11748057_x_at) / Fold change /veh SOX15 (11748057_x_at) / RFU CD79A (11719716_a_at) / Fold change /veh CD79A (11719716_a_at) / RFU HIST1H1D (11736915_at) / Fold change /veh HIST1H1D (11736915_at) / RFU CASKIN2 (11723855_a_at) / Fold change /veh CASKIN2 (11723855_a_at) / RFU LOC730098 (11760151_x_at) / Fold change /veh LOC730098 (11760151_x_at) / RFU OR4N2 (11742367_at) / Fold change /veh OR4N2 (11742367_at) / RFU PRRT2 (11749266_a_at) / Fold change /veh PRRT2 (11749266_a_at) / RFU SNX32 (11753110_a_at) / Fold change /veh SNX32 (11753110_a_at) / RFU CDHR5 (11726645_a_at) / Fold change /veh CDHR5 (11726645_a_at) / RFU RCAN1 (11760418_a_at) / Fold change /veh RCAN1 (11760418_a_at) / RFU FAM167A (11723789_a_at) / Fold change /veh FAM167A (11723789_a_at) / RFU FAM26E (11764081_at) / Fold change /veh FAM26E (11764081_at) / RFU ISYNA1 (11749810_s_at) / Fold change /veh ISYNA1 (11749810_s_at) / RFU ACY1 (11761880_at) / Fold change /veh ACY1 (11761880_at) / RFU 11764098_at / Fold change /veh 11764098_at / RFU SAMD14 (11745864_x_at) / Fold change /veh SAMD14 (11745864_x_at) / RFU NPB (11741838_a_at) / Fold change /veh NPB (11741838_a_at) / RFU TMPRSS6 (11731388_a_at) / Fold change /veh TMPRSS6 (11731388_a_at) / RFU KRTAP10-2 (11738614_at) / Fold change /veh KRTAP10-2 (11738614_at) / RFU ARHGAP8 /// PRR5-ARHGAP8 (11727945_x_at) / Fold change /veh ARHGAP8 /// PRR5-ARHGAP8 (11727945_x_at) / RFU KRTAP5-7 /// NADSYN1 (11734609_at) / Fold change /veh KRTAP5-7 /// NADSYN1 (11734609_at) / RFU RASL12 (11751679_a_at) / Fold change /veh RASL12 (11751679_a_at) / RFU CDKN2B (11736163_a_at) / Fold change /veh CDKN2B (11736163_a_at) / RFU PRF1 (11729649_at) / Fold change /veh PRF1 (11729649_at) / RFU, ZNF638 /// ZNF638-IT1 / Fold change vs veh, ZNF638 /// ZNF638-IT1 / RFU, PANK3 / Fold change vs veh, PANK3 / RFU, SH3YL1 / Fold change vs veh, SH3YL1 / RFU, ZEB2 / Fold change vs veh, ZEB2 / RFU, NRIP1 / Fold change vs veh, NRIP1 / RFU, PTTG1IP / Fold change vs veh, PTTG1IP / RFU, CAPN2 / Fold change vs veh, CAPN2 / RFU, MED14 / Fold change vs veh, MED14 / RFU, SNORA58 / Fold change vs veh, SNORA58 / RFU, C1orf63 / Fold change vs veh, C1orf63 / RFU, LRRFIP1 / Fold change vs veh, LRRFIP1 / RFU, NDUFAF7 / Fold change vs veh, NDUFAF7 / RFU, SLC12A2 / Fold change vs veh, SLC12A2 / RFU, IBTK / Fold change vs veh, IBTK / RFU, ESF1 / Fold change vs veh, ESF1 / Fold change vs veh, TMEM50B / RFU, TAOK1 / Fold change vs veh, TAOK1 / RFU, ACBD3 / Fold change vs veh, ACBD3 / RFU, TMA16 / Fold change vs veh, TMA16 / RFU, RWDD3 / Fold change vs veh, RWDD3 / RFU, BCAT1 / Fold change vs veh, BCAT1 / RFU, EDEM3 / Fold change vs veh, EDEM3 / RFU, TMEM33 / Fold change vs veh, TMEM33 / RFU, WDR75 / Fold change vs veh, WDR75 / RFU, AHCTF1 / Fold change vs veh, AHCTF1 / RFU, TFRC / Fold change vs veh, TFRC / RFU, ZDHHC17 / Fold change vs veh, ZDHHC17 / RFU, NOM1 / Fold change vs veh, NOM1 / RFU, ARL8B / Fold change vs veh, ARL8B / RFU, ZBTB11 / Fold change vs veh, ZBTB11 / RFU, TAMM41 / Fold change vs veh, TAMM41 / RFU, KIAA1704 /// LOC100996395 / Fold change vs veh, KIAA1704 /// LOC100996395 / RFU, ING1 / Fold change vs veh, ING1 / RFU, TRMT61B / Fold change vs veh, TRMT61B / RFU, FUBP3 / Fold change vs veh, FUBP3 / RFU, TP53 / Fold change vs veh, TP53 / RFU, TNKS2 / Fold change vs veh, TNKS2 / RFU, ZFP14 / Fold change vs veh, ZFP14 / RFU, ACTR2 / Fold change vs veh, ACTR2 / RFU, PPP3R1 / Fold change vs veh, PPP3R1 / RFU, PIK3R1 / Fold change vs veh, PIK3R1 / RFU, HNRNPA1 / Fold change vs veh, HNRNPA1 / RFU, RNF170 / Fold change vs veh, RNF170 / RFU, ZNF28 / Fold change vs veh, ZNF28 / RFU, RNGTT / Fold change vs veh, RNGTT / RFU, OGT / Fold change vs veh, OGT / RFU, BRD1 / Fold change vs veh, BRD1 / RFU, MARS / Fold change vs veh, MARS / RFU, ZNF655 / Fold change vs veh, ZNF655 / RFU, FAHD1 / Fold change vs veh, FAHD1 / RFU, BDP1 / Fold change vs veh, BDP1 / RFU, LRRCC1 / Fold change vs veh, LRRCC1 / RFU, ARID1A / Fold change vs veh, ARID1A / RFU, ZNF146 / Fold change vs veh, ZNF146 / RFU, ZNF330 / Fold change vs veh, ZNF330 / RFU, GPN3 / Fold change vs veh, GPN3 / RFU, C9orf123 / Fold change vs veh, C9orf123 / RFU, N4BP2L2 / Fold change vs veh, N4BP2L2 / RFU, ARFIP1 / Fold change vs veh, ARFIP1 / RFU, FAM179B / Fold change vs veh, FAM179B / RFU, BCL10 / Fold change vs veh, BCL10 / RFU, UHRF1BP1L / Fold change vs veh, UHRF1BP1L / RFU, BET1 / Fold change vs veh, BET1 / RFU, CNOT2 / Fold change vs veh, CNOT2 / RFU, ZNF268 / Fold change vs veh, ZNF268 / Fold change vs veh, ZNF507 / RFU, DGCR2 / Fold change vs veh, DGCR2 / RFU, WDSUB1 / Fold change vs veh, WDSUB1 / Fold change vs veh, HSP90B1 /// MIR3652 / RFU, ADSS / Fold change vs veh, ADSS / RFU, GK / Fold change vs veh, GK / RFU, ZNF148 / Fold change vs veh, ZNF148 / RFU, TAF9 / Fold change vs veh, TAF9 / RFU, SLC1A5 / Fold change vs veh, SLC1A5 / RFU, SLMO2 / Fold change vs veh, SLMO2 / RFU, ABCC4 / Fold change vs veh, ABCC4 / RFU, LOC101060439 /// RAP1B / Fold change vs veh, LOC101060439 /// RAP1B / RFU, RFX7 / Fold change vs veh, RFX7 / RFU, GTPBP10 / Fold change vs veh, GTPBP10 / RFU, CNEP1R1 / Fold change vs veh, CNEP1R1 / RFU, BIVM-ERCC5 /// ERCC5 / Fold change vs veh, BIVM-ERCC5 /// ERCC5 / RFU, ILF3 / Fold change vs veh, ILF3 / RFU 11762660_at / Fold change /veh 11762660_at / RFU VCAN (11757783_s_at) / Fold change /veh VCAN (11757783_s_at) / RFU DDX43 (11728927_at) / Fold change /veh DDX43 (11728927_at) / RFU KRT8 (11758188_x_at) / Fold change /veh KRT8 (11758188_x_at) / RFU NKD1 (11759106_at) / Fold change /veh NKD1 (11759106_at) / RFU SRD5A1 (11742802_a_at) / Fold change /veh SRD5A1 (11742802_a_at) / RFU TPSAB1 /// TPSB2 (11721975_s_at) / Fold change /veh TPSAB1 /// TPSB2 (11721975_s_at) / RFU GSTM3 (11746129_a_at) / Fold change /veh GSTM3 (11746129_a_at) / RFU IL23R (11737362_x_at) / Fold change /veh IL23R (11737362_x_at) / RFU TMEM51 (11727254_a_at) / Fold change /veh TMEM51 (11727254_a_at) / RFU PIWIL2 (11732686_x_at) / Fold change /veh PIWIL2 (11732686_x_at) / RFU ORM1 (11744905_x_at) / Fold change /veh ORM1 (11744905_x_at) / RFU CCDC152 (11743942_at) / Fold change /veh CCDC152 (11743942_at) / RFU ECM1 (11717891_a_at) / Fold change /veh ECM1 (11717891_a_at) / RFU IL23R (11748794_a_at) / Fold change /veh IL23R (11748794_a_at) / RFU TNFAIP8L3 (11732012_x_at) / Fold change /veh TNFAIP8L3 (11732012_x_at) / RFU MBOAT4 (11741988_at) / Fold change /veh MBOAT4 (11741988_at) / RFU 11764193_at / Fold change /veh 11764193_at / RFU TMEM53 (11763286_at) / Fold change /veh TMEM53 (11763286_at) / RFU MAGEB2 (11727129_at) / Fold change /veh MAGEB2 (11727129_at) / RFU TMEM200A (11744735_a_at) / Fold change /veh TMEM200A (11744735_a_at) / RFU CCDC152 (11751479_a_at) / Fold change /veh CCDC152 (11751479_a_at) / RFU FAM211A (11726209_a_at) / Fold change /veh FAM211A (11726209_a_at) / RFU RGS16 (11746705_a_at) / Fold change /veh RGS16 (11746705_a_at) / RFU VCAN (11755009_s_at) / Fold change /veh VCAN (11755009_s_at) / RFU RHOB (11743442_s_at) / Fold change /veh RHOB (11743442_s_at) / RFU RGS16 (11720943_a_at) / Fold change /veh RGS16 (11720943_a_at) / RFU RGS16 (11720944_at) / Fold change /veh RGS16 (11720944_at) / RFU, VPS4B / Fold change vs veh, VPS4B / RFU, CREB1 / Fold change vs veh, CREB1 / RFU, DNAJC13 / Fold change vs veh, DNAJC13 / RFU, GNAQ / Fold change vs veh, GNAQ / RFU, CDK5R1 / Fold change vs veh, CDK5R1 / RFU, ZRANB3 / Fold change vs veh, ZRANB3 / RFU, CUL4A / Fold change vs veh, CUL4A / RFU, CCNY / Fold change vs veh, CCNY / RFU, UFL1 / Fold change vs veh, UFL1 / RFU, COG3 / Fold change vs veh, COG3 / RFU, DIAPH2 / Fold change vs veh, DIAPH2 / RFU, SKA2 / Fold change vs veh, SKA2 / RFU, AFF3 / Fold change vs veh, AFF3 / RFU, LMF1 / Fold change vs veh, LMF1 / RFU, IPO11 / Fold change vs veh, IPO11 / RFU, DFFB / Fold change vs veh, DFFB / RFU, FOXP1 / Fold change vs veh, FOXP1 / RFU, CARD8 / Fold change vs veh, CARD8 / RFU, STRN3 / Fold change vs veh, STRN3 / RFU, ADK / Fold change vs veh, ADK / RFU, RASSF2 / Fold change vs veh, RASSF2 / RFU, WIPF1 / Fold change vs veh, WIPF1 / RFU, LARP1B / Fold change vs veh, LARP1B / RFU, RASA1 / Fold change vs veh, RASA1 / RFU, RB1 / Fold change vs veh, RB1 / RFU, PPFIA1 / Fold change vs veh, PPFIA1 / RFU, MAT2A / Fold change vs veh, MAT2A / RFU, CCT5 / Fold change vs veh, CCT5 / RFU, WDR92 / Fold change vs veh, WDR92 / RFU, CUX1 / Fold change vs veh, CUX1 / RFU, TTC7A / Fold change vs veh, TTC7A / RFU, TMEM135 / Fold change vs veh, TMEM135 / RFU, DEPTOR / Fold change vs veh, DEPTOR / RFU, CPM / Fold change vs veh, CPM / RFU, DNAJB6 / Fold change vs veh, DNAJB6 / RFU, CACNA2D3 / Fold change vs veh, CACNA2D3 / RFU, DTX4 / Fold change vs veh, DTX4 / RFU, TFCP2 / Fold change vs veh, TFCP2 / RFU, GMCL1 /// GMCL1P1 / Fold change vs veh, GMCL1 /// GMCL1P1 / RFU, AEBP2 / Fold change vs veh, AEBP2 / RFU, SNHG1 /// SNORD22 /// SNORD25 /// SNORD26 /// SNORD27 /// SNORD28 /// SNORD29 /// SNORD31 / Fold change vs veh, SNHG1 /// SNORD22 /// SNORD25 /// SNORD26 /// SNORD27 /// SNORD28 /// SNORD29 /// SNORD31 / Fold change (Aza/veh), C12orf56 (ProbeSet 11735607_a_at) / Fold change (ACY-1035/veh), C12orf56 (ProbeSet 11735607_a_at) / Fold change (Aza/veh), FGFR1OP (ProbeSet 11751329_s_at) / Fold change (ACY-1035/veh), FGFR1OP (ProbeSet 11751329_s_at) / Fold change (Aza/veh), VPS36 (ProbeSet 11739960_a_at) / Fold change (ACY-1035/veh), VPS36 (ProbeSet 11739960_a_at) / RFU SYPL1 (11715823_x_at) / Fold change /veh SYPL1 (11715823_x_at) / RFU IGFBP7 (11715501_s_at) / Fold change /veh IGFBP7 (11715501_s_at) / RFU REEP3 (11722064_at) / Fold change /veh REEP3 (11722064_at) / RFU IGLL1 (11728026_x_at) / Fold change /veh IGLL1 (11728026_x_at): dose or concentration left out as unconfirmed
Conditions: MV-4-11 cells, 48 hours

Nc1ncn([C@@H]2O[C@H](CO)[C@@H](O)[C@H]2O)c(=O)n1 [azacitidine]
RFU IL23R (11737362_x_at): 11.80 RFU
